# In patent publication US20250197387A1, “BCL-XL DEGRADERS AND USES THEREOF” (Kymera Therapeutics, Inc., priority 2021, published 2025):
# Like-named read-outs stand apart in the source and are kept apart here.
# Experiments:
# Assay type in all cases: cell-based
# BCL-XL [1] = biological target: T1, BCL-XL (Homo sapiens, UniProt Q07817); assay: BCL-XL degradation assay, western blot in MOLT-4 cells, 16 h; conditions: for DC50: read-out: Bcl-xL WB in MOLT-4 degradation 16 h: Mean external-Abs DC50
# T1 construct: endogenous in cells; host or cells: MOLT-4
# In short: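 MOLT-4 cells treated with compounds at 0.02-10 μM final for 16 hr at 37° C; lysates analysed by western blot with anti-BCL-xL, beta-actin and GAPDH loading controls, infrared imaging and densitometry; DC50 and Dmax % reported as letter codes.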
# Caki-2 cells = assay: CTG (CellTiter-Glo) cell viability assay, Caki-2; conditions: Homo sapiens, 72 h, 3 day incubation, read-out: CTG Chempartner - Caki-2 3 day: Average external-IC50
# Procedure: Compound-mediated viability effect on MOLT-4 and Caki-2 was quantitatively determined using the CellTiter-Glo® Luminescent Cell Viability Assay kit from Promega (Catalog number G7570) following manufacturer's recommended procedures. Briefly, MOLT-4 and Caki-2 cells were seeded into 384 well plates (Grenier Bio-One, Catalog number 781080) with a density of 10,000 cells per well. Compounds were then added to the assay plate with final top concentration of 10 μM and 1:3 dilution series with total of 9 doses. The final DMSO concentration is normalized to 0.2%. The assay plates were incubated at 37° C., for 3 days under 5% CO2. Then the assay plate was equilibrated at room temperature for 10 minutes. To determine cell viability, 30 uL CellTiter Glo reagent was added to each well and the assay plate was centrifuged at 1000 rpm for 30 second, incubated at room temperature for 10 min, and analyzed by detecting the luminescence using a multimode plate reader (EnVision 2105, PerkinElmer). The data was then analyzed by software Prism 7.0 from GraphPad and the dose response curves are fit using a three-parameter logistic equation to calculate IC50.
# The letter codes for MOLT-4 IC50 include: A (<0.1 μM); B (0.1-1.0 μM); C (>1.0-3.0 μM); and D (>3.0 μM). The letter codes for Caki-2 IC50 include: A (<0.1 μM); B (0.1-1.0 μM); C (>1.0-10.0 μM); and D (>10.0 μM).
# MOLT-4 cells = assay: CTG (CellTiter-Glo) cell viability assay, MOLT-4; conditions: 3 day incubation, read-out: CTG Cell Viability Assay - MOLT-4 3 day: Average external-IC50
# In short: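 MOLT-4 and Caki-2 cells at 10,000 cells/well exposed 3 days at 37° C., 5% CO2 to 9 doses (1:3, top 10 μM, 0.2% DMSO). Viability by CellTiter-Glo luminescence; IC50 from three-parameter logistic fit.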
# BCL-XL [2] = biological target: T1, BCL-XL; assay: Bcl-xL ELISA degradation in MOLT-4 cells, 6 h; conditions: for DC50: read-out: Bcl-xL ELISA in MOLT-4 degradation 6 h: Mean external-Abs DC50
# Procedure: The letter codes for BCL-XL DC50 include: A (<0.01 μM); B (0.01-0.1 μM); C (>[…]); D (>0.5-1.0 μM); and E (>1.0 μM). The letter codes for Dmax % include A (>75%); B (50 to 75%); C (<50%).
# [3] = western blot, MOLT-4 cells, 16 h, read-out: Bcl-xL WB in MOLT-4 degradation 16 h: Average Dmax %
# [4] = western blot, MOLT-4 cells, 16 h
# T1 sequence (Q07817 whole entry): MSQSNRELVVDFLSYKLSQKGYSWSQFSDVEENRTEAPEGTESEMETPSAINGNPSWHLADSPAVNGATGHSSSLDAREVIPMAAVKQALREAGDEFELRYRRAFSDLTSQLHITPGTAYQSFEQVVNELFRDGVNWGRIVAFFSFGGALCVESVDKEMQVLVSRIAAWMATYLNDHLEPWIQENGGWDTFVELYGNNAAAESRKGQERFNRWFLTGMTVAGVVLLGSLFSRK
SMILES,Dmax (BCL-XL [1]; [3]) [%],DC50 (BCL-XL [1]; [4]) [nM],IC50 (Caki-2 cells) [nM],"IC50 (MOLT-4 cells; Homo sapiens, MOLT-4, 72 h) [nM]",Dmax (BCL-XL [2]) [%],DC50 (BCL-XL [2]) [nM],Bcl-xL WB in MOLT-4 degradation 16 h: Average Dmax % (BCL-XL [1]; [4]),IC50 (MOLT-4 cells) [nM],Bcl-xL ELISA in MOLT-4 degradation 6 h: Average Dmax % (BCL-XL [2]),"Dmax (BCL-XL [1]; MOLT-4, read-out: Bcl-xL WB in MOLT-4 degradation 16 h: Average Dmax %) [%]","IC50 (MOLT-4 cells; Homo sapiens, 72 h) [nM]"
Cc1ncsc1-c1ccc([C@H](C)NC(=O)[C@@H]2C[C@@H](O)CN2C(=O)[C@@H](NC(=O)CCCCCC(=O)NCCOc2ccc(C(=O)Nc3nc4ccccc4s3)c3c2CCN(c2ccc(-c4cnn(CC5CCCCC5)c4C)c(C(=O)O)n2)C3)C(C)(C)C)cc1 [I-44],> 75,100 to 500,> 10000,–,–,–,–,–,–,–,–
Cc1ncsc1-c1ccc(CNC(=O)[C@@H]2C[C@@H](O)CN2C(=O)[C@@H](NC(=O)C2(F)CC2)C(C)(C)C)c(OCC(=O)N2CCN(CC#Cc3ccc(OCCCc4sc(N5CCc6cccc(C(=O)Nc7nc8ccccc8s7)c6C5)nc4C(=O)O)c(F)c3)CC2)c1 [I-170],> 75,10 to 100,–,100 to 1000,50 to 75,10 to 100,–,–,–,–,–
Cc1ncsc1-c1ccc([C@H](C)NC(=O)[C@@H]2C[C@@H](O)CN2C(=O)[C@@H](NC(=O)C2CCN(c3ccc(S(=O)(=O)NC(=O)c4nc(N5CCc6cccc(C(=O)Nc7nc8ccccc8s7)c6C5)ccc4-c4cccc5c4cnn5C(C)C)cc3)CC2)C(C)(C)C)cc1 [I-297],–,–,1000 to 10000,–,< 50,500 to 1000,–,–,–,–,–
Cc1ncsc1-c1ccc([C@H](C)NC(=O)[C@@H]2C[C@@H](O)CN2C(=O)[C@@H](NC(=O)CCCCCCC(=O)N2CCN(CC3(C)CCC(c4ccc(Cl)cc4)=C(CN4CCN(c5ccc(C(=O)NS(=O)(=O)c6ccc(N[C@H](CCN7CCOCC7)CSc7ccccc7)c(S(=O)(=O)C(F)(F)F)c6)cc5)CC4)C3)CC2)C(C)(C)C)cc1 (some centres unmarked) [I-399],–,< 10,–,–,–,100 to 500,A (A (>75%)),100 to 1000,C (C (<50%)),–,–
Cc1cc([C@H](C(=O)N2C[C@H](O)C[C@H]2C(=O)NCc2ccc(-c3scnc3C)cc2OCCCCCCNC(=O)c2nc(N3CCc4cccc(C(=O)Nc5nc6ccccc6s5)c4C3)ccc2-c2cnn(CC3CCCCC3)c2C)C(C)C)on1 [I-197],> 75,10 to 100,–,100 to 1000,< 50,> 1000,–,–,–,–,–
Cc1ncsc1-c1ccc(CNC(=O)[C@@H]2C[C@@H](O)CN2C(=O)[C@H](c2cc(N3CC4(CN(C(=O)CCCCC(=O)N(C)CC#Cc5ccc(OCCCc6ccc(N7CCc8cccc(C(=O)Nc9nc%10ccccc%10s9)c8C7)nc6C(=O)O)c(F)c5)C4)C3)no2)C(C)C)cc1 [I-192],50 to 75,< 10,–,1000 to 3000,< 50,> 1000,–,–,–,–,–
C#Cc1ccc([C@H](CO)NC(=O)[C@@H]2C[C@@H](O)CN2C(=O)[C@@H](NC(=O)CCc2ccc(S(=O)(=O)NC(=O)c3nc(N(C)c4cc(C)c(Nc5nc6ccccc6s5)nn4)ccc3-c3cnn(CC4CCCCC4)c3C)cc2)C(C)(C)C)cc1 [I-186],> 75,10 to 100,–,100 to 1000,50 to 75,10 to 100,–,–,–,–,–
Cc1ncsc1-c1ccc(CNC(=O)[C@@H]2C[C@@H](O)CN2C(=O)[C@@H](NC(=O)C2(F)CC2)C(C)(C)C)c(OCCN2CC3(C2)CN(C(=O)c2nc(N4CCc5cccc(C(=O)Nc6nc7ccccc7s6)c5C4)ccc2-c2cnn(CC4CCCCC4)c2C)C3)c1 [I-207],50 to 75,100 to 500,–,100 to 1000,< 50,> 1000,–,–,–,–,–
Cc1ncsc1-c1ccc(CNC(=O)[C@@H]2C[C@@H](O)CN2C(=O)[C@@H](NC(=O)C2(F)CC2)C(C)(C)C)c(OCCN2CCC(CS(=O)(=O)NC(=O)c3nc(N4CCc5cccc(C(=O)Nc6nc7ccccc7s6)c5C4)ccc3-c3cnn(CC4CCCCC4)c3C)CC2)c1 [I-189],> 75,10 to 100,–,100 to 1000,50 to 75,10 to 100,–,–,–,–,–
Cc1ncsc1-c1ccc([C@H](C)NC(=O)[C@@H]2C[C@@H](O)CN2C(=O)[C@@H](NC(=O)CN2CC(N3CCC(NC(=O)c4nc(N5CCc6cccc(C(=O)Nc7nc8ccccc8s7)c6C5)ccc4-c4cnn(CC5CCCCC5)c4C)CC3)C2)C(C)(C)C)cc1 [I-176],–,10 to 100,–,–,50 to 75,100 to 500,–,–,–,> 75,100 to 1000
Cc1ncsc1-c1ccc([C@H](C)NC(=O)[C@@H]2C[C@@H](O)CN2C(=O)[C@@H](NC(=O)COCCN2CCC(S(=O)(=O)NC(=O)c3nc(N4CCc5cccc(C(=O)Nc6nc7ccccc7s6)c5C4)ccc3-c3cnn(CC4CCCCC4)c3C)CC2)C(C)(C)C)cc1 [I-206],> 75,< 10,–,100 to 1000,50 to 75,10 to 100,–,–,–,–,–
Cc1ncsc1-c1ccc([C@H](C)NC(=O)[C@@H]2C[C@@H](O)CN2C(=O)[C@@H](NC(=O)CCCCCC(=O)N(C)CC#Cc2cccc(F)c2OCCCc2sc(N3CCc4cccc(C(=O)Nc5nc6ccccc6s5)c4C3)nc2C(=O)O)C(C)(C)C)cc1 [I-16],> 75,100 to 500,> 10000,–,–,–,–,–,–,–,–
Cc1ncsc1-c1ccc(CNC(=O)[C@@H]2C[C@@H](O)CN2C(=O)[C@H](c2cc(N3CC4(CN(CCCC(=O)N(C)CC#Cc5ccc(OCCCc6ccc(N7CCc8cccc(C(=O)Nc9nc%10ccccc%10s9)c8C7)nc6C(=O)O)c(F)c5)C4)C3)no2)C(C)C)cc1 [I-181],> 75,< 10,–,100 to 1000,50 to 75,10 to 100,–,–,–,–,–
Cc1ncsc1-c1ccc([C@H](C)NC(=O)[C@@H]2C[C@@H](O)CN2C(=O)[C@@H](NC(=O)CO[C@H]2C[C@H](OCCNC(=O)c3nc(N4CCc5cccc(C(=O)Nc6nc7ccccc7s6)c5C4)ccc3-c3cnn(CC4CCCCC4)c3C)C2)C(C)(C)C)cc1 [I-182],> 75,10 to 100,–,100 to 1000,50 to 75,100 to 500,–,–,–,–,–
Cc1ncsc1-c1ccc([C@H](C)NC(=O)[C@@H]2C[C@@H](O)CN2C(=O)[C@@H](NC(=O)CCCCCCC(=O)N2CCN(C[C@@]3(C)CCC(c4ccc(Cl)cc4)=C(CN4CCN(c5ccc(C(=O)NS(=O)(=O)c6ccc(N[C@H](CCN7CCOCC7)CSc7ccccc7)c(S(=O)(=O)C(F)(F)F)c6)cc5)CC4)C3)CC2)C(C)(C)C)cc1 [I-396],> 75,< 10,–,100 to 1000,50 to 75,500 to 1000,–,–,–,–,–
Cc1ncsc1-c1ccc([C@H](C)NC(=O)[C@@H]2C[C@@H](O)CN2C(=O)[C@@H](NC(=O)CCCCCCN(C)C(=O)c2nc(N3CCc4cccc(C(=O)Nc5nc6ccccc6s5)c4C3)ccc2-c2cnn(CC3CCCCC3)c2C)C(C)(C)C)cc1 [I-185],> 75,10 to 100,–,100 to 1000,50 to 75,10 to 100,–,–,–,–,–
C#Cc1ccc([C@H](CO)NC(=O)[C@@H]2C[C@@H](O)CN2C(=O)[C@@H](NC(=O)CCc2ccc(S(=O)(=O)NC(=O)c3nc(N4CCc5cccc(C(=O)Nc6nc7ccccc7s6)c5C4)ccc3-c3cnn(CC4CCCCC4)c3C)cc2)C(C)(C)C)cc1 [I-194],> 75,< 10,–,< 100,> 75,10 to 100,–,–,–,–,–
Cc1ncsc1-c1ccc([C@H](C)NC(=O)[C@@H]2C[C@@H](O)CN2C(=O)[C@@H](NC(=O)N2CC(c3ccc(S(=O)(=O)NC(=O)c4nc(N5CCc6cccc(C(=O)Nc7nc8ccccc8s7)c6C5)ccc4-c4cnn(CC5CCCCC5)c4C)cc3)C2)C(C)(C)C)cc1 [I-210],> 75,100 to 500,–,100 to 1000,50 to 75,100 to 500,–,–,–,–,–
Cc1ncsc1-c1ccc(CNC(=O)[C@@H]2C[C@@H](O)CN2C(=O)[C@@H](NC(=O)C2(F)CC2)C(C)(C)C)c(OCCC2CN(CC[C@H](CSc3ccccc3)Nc3ccc(S(=O)(=O)NC(=O)c4ccc(N5CCN(CC6=C(c7ccc(Cl)cc7)CCC(C)(C)C6)CC5)cc4)cc3S(=O)(=O)C(F)(F)F)C2)c1 [I-208],50 to 75,500 to 1000,–,100 to 1000,< 50,> 1000,–,–,–,–,–
